Reference: US20250332249A1, “CYTOM[…] CELL EPITOPES AND USES THEREOF” (LA JOLLA INSTITUTE FOR IMMUNOLOGY, priority 2021, published 2025)
Where no end group is shown, it is not given here.

Test system: PBMCs from HCMV seropositive subjects
Assay: ex vivo IFN-γ Fluorospot assay
Format: cell-based, human
Conditions: 19 HCMV seropositive subjects, individual peptide 10 ug/ml, 20 hr; for No. of subjects responding: IFN-γ; for Magnitude of response: IFN-γ spots (FIG. 1: SFC/10^6 PBMC; no unit in table)
Experimental: To define the targets of HCMV-specific T cell epitopes recognized in healthy adults, the inventors screened PBMCs of 19 subjects, 10 males and 9 females, recruited from San Diego blood bank (SDBB). The HCMV seropositivity of all the subjects was confirmed by IgG ELISA (FIG. 6A). A total of 2593 HCMV peptides covering a total of 563 ORFs (1) were tested. However, as many of these predicted ORFs overlapped 100% with others, as they were internal to longer ORFs, these 563 contained 359 completely unique ORFs composed of ˜150“canonical” ORFs, and an additional ˜200 identified by ribosomal RNA profiling (1). These peptides corresponded to predicted dominant epitopes, based on a bioinformatic method that predicts promiscuous binding to HLA class II molecules (40). Each of the ORFs above was covered by multiple predicted epitopes (with a minimum of at least 2), with the exception of very small ORFs (less than 15-20 amino acid residues), in which case at least one peptide was synthetized. The 2593 peptides were arranged in 89 pools of 28-30 15-mer peptides. PBMC reactivity of each of the 89 pools was assayed directly ex vivo using an IFN-γ Fluorospot assay.
For the initial CMV ORF screen, the responses of 19 CMV-seropositive subjects were evaluated. PBMCs were stimulated with 89 pools covering 563 ORFs of HCMV. Each pool comprised of 28-30 15-mer peptides overlapping by 10 residues. PBMCs that were found reactive to a pool were further tested against individual peptides contained in the pool using IFN-γ Fluorospot assay.
PBMC were thawed, washed and counted for viability using the trypan blue exclusion method. 200,000 cells were plated in triplicates and stimulated with pools (2 ug/ml) or peptides (10 ug/ml), PHA (10 ug/ml) or medium containing equivalent amount of DMSO in 96-well plates (Immubilion-P, Millipore) previously coated with anti IFN-γ antibody (1-DIK, Mabtech, Stockholm, Sweden). After 20 hr incubation at 37° C., cells were discarded and wells were washed six times with PBS/0.05% Tween 20 using an automated plate washer and further incubated with IFN-γ antibody (7-B6-1-FS-BAM) for 2 hrs at room temperature. After incubation, wells were washed and incubated with fluorophore conjugated anti-BAM-490 antibody for 1 hr at room temperature. Finally, the plates were washed and incubated with fluorescence enhancer for 15 min, blotted dry and fluorescent spots were counted by computer assisted image analysis (IRIS Fluorospot reader, Mabtech, Sweden).
Each pool or peptide was considered positive compared to the background that had equivalent amount of DMSO based on the following criteria: (i) 20 or more spot forming cells (SFC) per 10^6 PBMC after background subtraction, (ii) the stimulation index greater than 2, and (iii) p<0.05 by student's t test or Poisson distribution test

Substance: 29 (KRYFRPLLRAWSLGL) [compound 29]
- No. of subjects responding: 4
- Magnitude of response: 1388

Substance: 61 (ASKIKMLETRVTLAL) [compound 61]
- No. of subjects responding: 1
- Magnitude of response: 140

Substance: 33 (MLFRPTISNSIPRCR) [compound 33]
- No. of subjects responding: 1
- Magnitude of response: 47

Substance: 80 (ASCVTINQTSVKVLR) [compound 80]
- No. of subjects responding: 5
- Magnitude of response: 8941

Substance: 150 (CEIKPYVVNPVVATA) [compound 150]
- No. of subjects responding: 3
- Magnitude of response: 2583

Substance: 40 (KELRMCLSFDSNYCR; ends and bridges not checked; cysteine pairing not given here) [compound 40]
- No. of subjects responding: 1
- Magnitude of response: 127

Substance: 114 (GILARNLVPMVATVQ) [compound 114]
- No. of subjects responding: 11
- Magnitude of response: 34633

Substance: 100 (PKSFTLTRIHPEYIV) [compound 100]
- No. of subjects responding: 2
- Magnitude of response: 340

Substance: 88 (SLLILVVLLLIYRCC) [compound 88]
- No. of subjects responding: 1
- Magnitude of response: 23

Substance: 71 (RRSYAYIHTTYLLGS) [compound 71]
- No. of subjects responding: 5
- Magnitude of response: 2730

Substance: 147 (AVAFLNYSSSSSAVS) [compound 147]
- No. of subjects responding: 3
- Magnitude of response: 2151

Substance: 132 (AREFLLSHDAALFRA; ends and bridges not checked) [compound 132]
- No. of subjects responding: 1
- Magnitude of response: 23

Substance: 93 (QTIYFLGLTALLLRY) [compound 93]
- No. of subjects responding: 1
- Magnitude of response: 583

Substance: 143 (VVRKYWTFTNPNRIL) [compound 143]
- No. of subjects responding: 3
- Magnitude of response: 16876

Substance: 182 (SYLAVHLRISHRYYH) [compound 182]
- No. of subjects responding: 1
- Magnitude of response: 290

Substance: 65 (DLKYILTRLEYLYKV) [compound 65]
- No. of subjects responding: 1
- Magnitude of response: 30

Substance: 203 (VYLWYVRRQLVAFCL) [compound 203]
- No. of subjects responding: 3
- Magnitude of response: 253

Substance: 20 (IINYYYVAQKKARHM) [compound 20]
- No. of subjects responding: 1
- Magnitude of response: 163

Substance: 23 (DFLRVVRQQDAFICT) [compound 23]
- No. of subjects responding: 2
- Magnitude of response: 174

Substance: 6 (GAGLRQLRQQLTVRW) [compound 6]
- No. of subjects responding: 1
- Magnitude of response: 20

Substance: 208 (PQRLLLTALAIWQRT) [compound 208]
- No. of subjects responding: 1
- Magnitude of response: 983

Substance: 166 (RVDMVRHRIKEHMLK) [compound 166]
- No. of subjects responding: 2
- Magnitude of response: 250

Substance: 223 (TDCWPFEVAPAARLA) [compound 223]
- No. of subjects responding: 2
- Magnitude of response: 1637

Substance: 215 (VCAFCWLVLPHRLEQ) [compound 215]
- No. of subjects responding: 1
- Magnitude of response: 1960

Substance: 59 (MPVQRLTVNVARCVF) [compound 59]
- No. of subjects responding: 1
- Magnitude of response: 20

Substance: 195 (SLDRFIVQYLNTLLI) [compound 195]
- No. of subjects responding: 8
- Magnitude of response: 23368

Substance: 117 (LTWCVIADRQPRFSV) [compound 117]
- No. of subjects responding: 3
- Magnitude of response: 240

Substance: 70 (YQKVLTFRRSYAYIH) [compound 70]
- No. of subjects responding: 1
- Magnitude of response: 40

Substance: 89 (LSYMKYHHLHGLPVN) [compound 89]
- No. of subjects responding: 3
- Magnitude of response: 879

Substance: 169 (EERDKVLTHIDHIFM) [compound 169]
- No. of subjects responding: 2
- Magnitude of response: 107

Substance: 58 (FLKKMLLCALKGRAS) [compound 58]
- No. of subjects responding: 1
- Magnitude of response: 930

Substance: 161 (CRVDADLGLLYAVCL) [compound 161]
- No. of subjects responding: 1
- Magnitude of response: 673

Substance: 149 (CDLPLVSSRLLPETS) [compound 149]
- No. of subjects responding: 1
- Magnitude of response: 123

Substance: 39 (VNAVNKLVYTGRLIM; ends and bridges not checked) [compound 39]
- No. of subjects responding: 1
- Magnitude of response: 340

Substance: 8 (AITLFFFLLALRIPQ) [compound 8]
- No. of subjects responding: 1
- Magnitude of response: 207

Substance: 172 (FAQYILGADPLRVCS) [compound 172]
- No. of subjects responding: 1
- Magnitude of response: 30

Substance: 28 (LHCMRYLTSSLVKRY) [compound 28]
- No. of subjects responding: 1
- Magnitude of response: 150

Substance: 27 (EAYVRINAGQVLPVV) [compound 27]
- No. of subjects responding: 1
- Magnitude of response: 1853

Substance: 74 (NADKFFIFPNYTIVS) [compound 74]
- No. of subjects responding: 4
- Magnitude of response: 5120

Substance: 98 (IKMWFLLGAPMIAVL) [compound 98]
- No. of subjects responding: 3
- Magnitude of response: 2867

Substance: 178 (YRNMIIHAATPVDLL) [compound 178]
- No. of subjects responding: 2
- Magnitude of response: 130

Substance: 91 (RSSWRASCVEVPKKP) [compound 91]
- No. of subjects responding: 1
- Magnitude of response: 370

Substance: 69 (HTFKVRVYQKVLTFR) [compound 69]
- No. of subjects responding: 1
- Magnitude of response: 423

Substance: 52 (IQTMELMIRTVPRIT) [compound 52]
- No. of subjects responding: 2
- Magnitude of response: 384

Substance: 160 (ISLVTPLTINATLRL) [compound 160]
- No. of subjects responding: 1
- Magnitude of response: 317

Substance: 228 (LRYKWLIRKDRFIVR) [compound 228]
- No. of subjects responding: 1
- Magnitude of response: 3247

Substance: 25 (GVSSVTLLKIFSQVP) [compound 25]
- No. of subjects responding: 2
- Magnitude of response: 220

Substance: 148 (AGLMMMRRMRRAPAE) [compound 148]
- No. of subjects responding: 1
- Magnitude of response: 490

Substance: 218 (GLYLRQYDPPALRTY) [compound 218]
- No. of subjects responding: 2
- Magnitude of response: 633

Substance: 207 (RWQFAVCAASKTATR) [compound 207]
- No. of subjects responding: 1
- Magnitude of response: 50

Substance: 26 (VLATLAAVRTRRRSV) [compound 26]
- No. of subjects responding: 2
- Magnitude of response: 340

Substance: 17 (FCRRFFFPDRPDFFL) [compound 17]
- No. of subjects responding: 1
- Magnitude of response: 107

Substance: 55 (RRRFKVCDVGRRHII) [compound 55]
- No. of subjects responding: 1
- Magnitude of response: 63

Substance: 60 (KFIFELYRLPRLSIA) [compound 60]
- No. of subjects responding: 1
- Magnitude of response: 173

Substance: 64 (MLFFQRYAPAFVTGY) [compound 64]
- No. of subjects responding: 1
- Magnitude of response: 57

Substance: 153 (RATGNFRSTSLYAAV) [compound 153]
- No. of subjects responding: 3
- Magnitude of response: 4220

Substance: 31 (ARNLMEFARVGLRAV) [compound 31]
- No. of subjects responding: 1
- Magnitude of response: 1450

Substance: 170 (VLCCYVLEETSVMLA) [compound 170]
- No. of subjects responding: 1
- Magnitude of response: 93

Substance: 87 (NIFLVGFYLLVPYLG) [compound 87]
- No. of subjects responding: 1
- Magnitude of response: 1633

Substance: 2 (RYNALTVRSRDSLLL) [compound 2]
- No. of subjects responding: 2
- Magnitude of response: 204

Substance: 11 (PSVRMDFRARRPLRR) [compound 11]
- No. of subjects responding: 3
- Magnitude of response: 1740

Substance: 104 (SSCAHTTCRSATSLV) [compound 104]
- No. of subjects responding: 2
- Magnitude of response: 104

Substance: 37 (RDVVALVNFLRHLTQ; ends and bridges not checked) [compound 37]
- No. of subjects responding: 1
- Magnitude of response: 1710

Substance: 90 (VELCLGAGAGHVVVV) [compound 90]
- No. of subjects responding: 1
- Magnitude of response: 383

Substance: 118 (RPKRRVVAPFRVAAA; ends and bridges not checked) [compound 118]
- No. of subjects responding: 2
- Magnitude of response: 283

Substance: 226 (EKYMVLVSHNLDELA) [compound 226]
- No. of subjects responding: 1
- Magnitude of response: 20
